Measurements as given in patent publication US7799924B2, “Substituted homopiperidine, piperidine or pyrrolidine derivatives” (High Point Pharmaceuticals, LLC, priority 2002, dated 2010).

melting point: 222 to 224 °C
Compound: CN1CCC(c2noc(-c3ccc(-c4ccccc4)cc3)n2)CC1.CS(=O)(=O)O
